Reference: the supplement of paper PMC8092582
Where a name gives a salt, the structure may show the parent alone. ± gives the standard deviation of the averaged measurements.

Test system: HeLa
Assay: cell viability (CellTiter-Glo) relative to median of lowest-dilution wells of all drugs (fraction); higher = more viable cells
Method: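 HeLa control and CRISPR DDX11 knockout cells were seeded in 384-well plates and incubated for 72 h with each of 64 […] drugs at six concentrations. Viability was read with CellTiter-Glo and normalised to the median of the lowest (6th) dilution wells of all drugs. Two biological replicates (BR1, BR2) are averaged; the concentration unit is not stated.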

[1] = drug concentration (unit not stated): 0.01, genotype: DDX11 knockout
[2] = drug concentration (unit not stated): 0.01, genotype: control (DDX11 wild type)
[3] = drug concentration (unit not stated): 0.04, genotype: DDX11 knockout
[4] = drug concentration (unit not stated): 0.04, genotype: control (DDX11 wild type)
[5] = drug concentration (unit not stated): 0.12, genotype: DDX11 knockout
[6] = drug concentration (unit not stated): 0.12, genotype: control (DDX11 wild type)
[7] = drug concentration (unit not stated): 0.37, genotype: DDX11 knockout
[8] = drug concentration (unit not stated): 0.37, genotype: control (DDX11 wild type)
[9] = drug concentration (unit not stated): 1.11, genotype: DDX11 knockout
[10] = drug concentration (unit not stated): 1.11, genotype: control (DDX11 wild type)
[11] = drug concentration (unit not stated): 3.33, genotype: DDX11 knockout
[12] = drug concentration (unit not stated): 3.33, genotype: control (DDX11 wild type)
[13] = drug concentration (unit not stated): 10, genotype: DDX11 knockout
[14] = drug concentration (unit not stated): 10, genotype: control (DDX11 wild type)
[15] = drug concentration (unit not stated): 30, genotype: DDX11 knockout
[16] = drug concentration (unit not stated): 30, genotype: control (DDX11 wild type)

Structure (SMILES) | cell viability [1] | cell viability [2] | cell viability [3] | cell viability [4] | cell viability [5] | cell viability [6] | cell viability [7] | cell viability [8] | cell viability [9] | cell viability [10] | cell viability [11] | cell viability [12] | cell viability [13] | cell viability [14] | cell viability [15] | cell viability [16]
O=C(CCCCCCC(=O)Nc1ccccc1)NO [Vorinostat (SAHA)] | 1.01 ± 0.075 | 1.03 ± 0.026 | 0.974 ± 0.013 | 0.9673 ± 0.0094 | 0.995 ± 0.052 | 0.971 ± 0.031 | 0.771 ± 0.18 | 0.825 ± 0.27 | 0.317 ± 0.41 | 0.44 ± 0.58 | – | – | – | – | – | –
CC[C@H](CO)Nc1nc(NCc2ccccc2)c2ncn(C(C)C)c2n1 [Seliciclib (Roscovitine)] | – | – | – | – | 0.992 ± 0.018 | 0.946 ± 0.036 | 1.008 ± 0.0031 | 0.98 ± 0.018 | 1.04 ± 0.021 | 1 ± 0.033 | 1 ± 0.012 | 0.994 ± 0.038 | 1.01 ± 0.051 | 1.028 ± 0.008 | 0.577 ± 0.26 | 0.893 ± 0.38
O=c1[nH]c(=O)n(C2CCCO2)cc1F (configuration not stated) [Ftorafur (Tegafur)] | 0.991 ± 0.11 | 0.978 ± 0.05 | 0.985 ± 0.063 | 0.953 ± 0.027 | 1 ± 0.057 | 1.01 ± 0.014 | 1.02 ± 0.016 | 1.01 ± 0.026 | 1 ± 0.016 | 1.01 ± 0.028 | 1.013 ± 0.0085 | 1.03 ± 0.014 | – | – | – | –
C[C@@H]1COCCN1c1cc(C2([S@](C)(=N)=O)CC2)nc(-c2cc[nH]c3nccc2-3)n1 [AZD6738] | – | – | 1.04 ± 0.026 | 1.04 ± 0.022 | 1.03 ± 0.046 | 1.03 ± 0.019 | 0.992 ± 0.045 | 0.971 ± 0.022 | 0.862 ± 0.0099 | 0.957 ± 0.13 | 0.648 ± 0.036 | 0.913 ± 0.29 | 0.366 ± 0.094 | 0.55 ± 0.24 | – | –
NC(=O)Nc1cc(-c2cccc(F)c2)sc1C(=O)N[C@H]1CCCNC1 [AZD7762] | 1.08 ± 0.072 | 1.02 ± 0.025 | 1.011 ± 0.0048 | 1.04 ± 0.043 | 0.992 ± 0.051 | 0.959 ± 0.023 | 0.819 ± 0.055 | 0.896 ± 0.16 | 0.36 ± 0.022 | 0.647 ± 0.3 | 0.142 ± 0.014 | 0.299 ± 0.12 | – | – | – | –
O=c1cc(-c2cccc3c2Sc2ccccc2S3)oc(N2CCOCC2)c1 | – | – | – | – | 1.06 ± 0.039 | 0.988 ± 0.017 | 1.03 ± 0.027 | 1.01 ± 0.065 | 0.9944 ± 0.005 | 0.9715 ± 0.0052 | 0.963 ± 0.023 | 0.998 ± 0.064 | 0.843 ± 0.048 | 0.951 ± 0.17 | 0.633 ± 0.053 | 0.854 ± 0.38
CCN(CCO)CCCOc1ccc2c(Nc3cc(CC(=O)Nc4cccc(F)c4)[nH]n3)ncnc2c1 [AZD1152-HQPA (Barasertib)] | – | – | 0.927 ± 0.032 | 0.985 ± 0.18 | 0.912 ± 0.066 | 1.01 ± 0.22 | 0.883 ± 0.1 | 0.97 ± 0.28 | 0.888 ± 0.051 | 0.964 ± 0.21 | 0.831 ± 0.027 | 0.957 ± 0.25 | 0.813 ± 0.064 | 0.953 ± 0.23 | – | –
Nc1nc(Cl)nc2c1ncn2[C@H]1C[C@H](O)[C@@H](CO)O1 [Cladribine] | 0.96 ± 0.03 | 0.977 ± 0.015 | 1.04 ± 0.035 | 1.04 ± 0.052 | 1.09 ± 0.077 | 1.2 ± 0.25 | 0.935 ± 0.024 | 1.06 ± 0.25 | 0.487 ± 0.34 | 0.468 ± 0.15 | 0.135 ± 0.12 | 0.103 ± 0.056 | – | – | – | –
COCC[n+]1c2c(n(Cc3cnccn3)c1C)C(=O)c1ccccc1C2=O [YM155 (Sepantronium bromide)] | 0.0145 ± 0.002 | 0.015 ± 0.0031 | 0.0143 ± 0.0008 | 0.0164 ± 0.0034 | 0.0146 ± 0.00021 | 0.0177 ± 0.0016 | 0.0135 ± 0.00019 | 0.0166 ± 0.0028 | 0.0136 ± 0.00081 | 0.0158 ± 0.0023 | – | – | – | – | – | –
O=c1[nH]c(=O)n([C@H]2C[C@H](O)[C@@H](CO)O2)cc1F [Floxuridine] | 1.04 ± 0.047 | 1.2 ± 0.21 | 1 ± 0.05 | 1.1 ± 0.054 | 0.961 ± 0.15 | 0.998 ± 0.019 | 1.01 ± 0.13 | 0.952 ± 0.19 | 0.858 ± 0.19 | 0.874 ± 0.31 | 0.76 ± 0.43 | 0.786 ± 0.51 | – | – | – | –
CC[C@]1(O)C[C@@H]2CN(CCc3c([nH]c4ccccc34)[C@@](C(=O)OC)(c3cc4c(cc3OC)N(C)[C@H]3[C@@](O)(C(=O)OC)[C@H](OC(C)=O)[C@]5(CC)C=CCN6CC[C@]43[C@@H]65)C2)C1 [Vinblastine] | 0.751 ± 0.37 | 0.802 ± 0.21 | 0.538 ± 0.36 | 0.799 ± 0.44 | 0.374 ± 0.092 | 0.441 ± 0.2 | 0.392 ± 0.0058 | 0.31 ± 0.042 | 0.3923 ± 0.00082 | 0.355 ± 0.12 | 0.401 ± 0.042 | 0.359 ± 0.089 | – | – | – | –
Cc1cc(Nc2cc(N3CCN(C)CC3)nc(Sc3ccc(NC(=O)C4CC4)cc3)n2)n[nH]1 [Tozasertib (VX-680)] | – | – | – | – | 0.959 ± 0.016 | 0.978 ± 0.1 | 0.951 ± 0.025 | 1.1 ± 0.2 | 0.976 ± 0.087 | 1.03 ± 0.22 | 0.912 ± 0.048 | 1.02 ± 0.23 | 0.823 ± 0.04 | 0.975 ± 0.22 | 0.659 ± 0.067 | 0.764 ± 0.19
O=C(c1cc(Cc2n[nH]c(=O)c3ccccc23)ccc1F)N1CCN(C(=O)C2CC2)CC1 [Olaparib] | – | – | 1.072 ± 0.0052 | 1.02 ± 0.032 | 1.02 ± 0.024 | 1.04 ± 0.043 | 0.953 ± 0.063 | 0.959 ± 0.036 | 0.954 ± 0.037 | 0.967 ± 0.035 | 0.796 ± 0.076 | 0.987 ± 0.011 | 0.677 ± 0.083 | 1.01 ± 0.066 | – | –
CO[C@@H](C(=O)N1Cc2[nH]nc(NC(=O)c3ccc(N4CCN(C)CC4)cc3)c2C1)c1ccccc1 | – | – | 0.971 ± 0.036 | 0.956 ± 0.032 | 0.877 ± 0.023 | 0.943 ± 0.18 | 0.906 ± 0.032 | 0.943 ± 0.13 | 0.744 ± 0.091 | 0.771 ± 0.065 | 0.624 ± 0.11 | 0.645 ± 0.046 | 0.466 ± 0.043 | 0.58 ± 0.1 | – | –
Nc1ccn([C@@H]2O[C@H](CO)[C@@H](O)C2(F)F)c(=O)n1 [Gemcitabine HCl (Gemzar)] | 0.0596 ± 0.017 | 0.0573 ± 0.021 | 0.0446 ± 0.0085 | 0.0383 ± 0.016 | 0.0501 ± 0.015 | 0.0767 ± 0.053 | 0.0439 ± 0.017 | 0.065 ± 0.04 | 0.0472 ± 0.028 | 0.0514 ± 0.028 | – | – | – | – | – | –
CC(C)C[C@H](NC(=O)[C@H](CCc1ccccc1)NC(=O)CN1CCOCC1)C(=O)N[C@@H](Cc1ccccc1)C(=O)N[C@@H](CC(C)C)C(=O)[C@@]1(C)CO1 [Carfilzomib] | 0.6 ± 0.63 | 1.11 ± 0.022 | 0.512 ± 0.7 | 1.1 ± 0.07 | 0.414 ± 0.57 | 1.02 ± 0.14 | 0.0394 ± 0.035 | 0.385 ± 0.37 | 0.00988 ± 0.0031 | 0.0166 ± 0.0079 | – | – | – | – | – | –
COc1ccc(C2=N[C@@H](c3ccc(Cl)cc3)[C@@H](c3ccc(Cl)cc3)N2C(=O)N2CCNC(=O)C2)c(OC(C)C)c1 [Nutlin-3] | – | – | 0.977 ± 0.022 | 0.944 ± 0.013 | 0.981 ± 0.057 | 0.9784 ± 0.0054 | 0.983 ± 0.047 | 1.029 ± 0.0079 | 0.9903 ± 0.0028 | 0.956 ± 0.0068 | 0.965 ± 0.026 | 1.035 ± 0.0094 | 0.9631 ± 0.0059 | 1.06 ± 0.096 | – | –
C[C@@]1(CO)[C@H](O)CC[C@@]2(C)[C@H]1CC[C@H]1C[C@@H]3C[C@@]12CC[C@]3(O)CO [Aphidicolin] | – | – | 1.02 ± 0.036 | 1.06 ± 0.031 | 1.06 ± 0.089 | 1.08 ± 0.11 | 0.91 ± 0.027 | 1.06 ± 0.24 | 0.58 ± 0.046 | 0.79 ± 0.27 | 0.428 ± 0.045 | 0.523 ± 0.16 | 0.182 ± 0.027 | 0.23 ± 0.13 | – | –
CNC(=O)c1cccc(-c2ccc3c(N4CCOC[C@@H]4C)nc(N4CCOC[C@@H]4C)nc3n2)c1 [Vistusertib (AZD2014)] | – | – | 0.902 ± 0.082 | 0.938 ± 0.15 | 0.777 ± 0.13 | 0.973 ± 0.3 | 0.668 ± 0.16 | 0.917 ± 0.29 | 0.449 ± 0.081 | 0.637 ± 0.16 | 0.356 ± 0.03 | 0.533 ± 0.17 | 0.344 ± 0.048 | 0.436 ± 0.17 | – | –
CC(=O)Nc1cccc(-n2c(=O)n(C3CC3)c(=O)c3c(Nc4ccc(I)cc4F)n(C)c(=O)c(C)c32)c1 [Trametinib] | – | – | 0.814 ± 0.081 | 0.908 ± 0.2 | 0.773 ± 0.058 | 0.914 ± 0.18 | 0.861 ± 0.12 | 0.976 ± 0.28 | 0.736 ± 0.17 | 0.952 ± 0.31 | 0.613 ± 0.23 | 0.968 ± 0.34 | 0.46 ± 0.03 | 0.706 ± 0.17 | – | –
